# Laboratory results as given in US9623023B2, “Class of non-stimulant treatment and ADHD and related disorders” (The Florida State University Research Foundation, …, priority 2012, dated 2017).
# “Also recorded” adds a separate entry of the source.
# How the values were obtained:
# PNE mice [1] = assay: Locomotor activity (hyperactivity) in prenatal nicotine exposure (PNE) mouse model; format: in vivo; conditions: oral
# PNE mice [2] = conditions: active phase (lights off), Zhu 2012; cited from earlier work
# PFC dopamine turnover = conditions: PNE mice; MPH administration; Zhu 2012; cited from earlier work
# [3] = tested on: hyperactivity in children; conditions: oral, dose range 0.5-2 mg/kg; previous reports; cited from earlier work
# [4] = long-term usage; Recant 1980; cited from earlier work
# SHR rats = assay: Locomotor activity (hyperactivity) in spontaneously hypertensive rat (SHR) ADHD model; format: in vivo
# Procedure: (§1) Spontaneously hypertensive rat (SHR) as an ADHD model. The SHR is a spontaneously occurring mutation associated with hypertension. […] Thus, both the SHR and the PNE mouse model show hyperactivity and increased frontal cortical KOPR activity. The selective KOPR antagonist, nor-BNI (10 mg/kg, i.p.) or the saline vehicle were administered to 60-day old SHR and WKY control rats (Sagvolden et al., 2009 (Reference 56)) at 17:00 hr and locomotor activity measured at hourly intervals over the next 19 hr (FIGS. 4 and 5). […] Since the hyperactivity in the SHR rat was evident during the lights off period from 19:00 hr to 7:00 hr, activity was compared during the lights off period between SHR rats receiving nor-BNI and those receiving saline.
# The long-lasting effects of nor-BNI in the SHR is consistent with previous reports that the desensitization of the KOPR produced by nor-BNI lasts for up to 21 days (Metcalf and Coop, 2005 (Reference 43); Patkar et al., 2013 (Reference 48)).
# WKY control rats = assay: Locomotor activity in WKY control rats; format: in vivo, rat; conditions: 10 mg/kg i.p.
# Procedure: as §1
# KOPR = conditions: previous reports (Metcalf and Coop 2005; Patkar 2013); cited from earlier work
structure (smiles),measurement,setting,value
"COC(=O)C(c1ccccc1)C1CCCCN1 (stereo not drawn) [MPH, methylphenidate]",locomotor activity,"PNE mice [1]; PNE mice, MPH 0.75 mg/kg, FIG. 2 graph 204",significantly decreased locomotor activity
same,locomotor activity after single oral administration,PNE mice [2],reduces the activity to the levels seen in drug naïve control mice
same,PFC dopamine turnover,PFC dopamine turnover,increases PFC dopamine turnover
O=C1CC[C@@]2(O)[C@H]3Cc4ccc(O)c5c4[C@@]2(CCN3CC2CC2)[C@H]1O5 [naltrexone],locomotor activity compared to vehicle,"PNE mice [1]; P60 male PNE mice, naltrexone 1 mg/kg, at 19:00 hrs, FIG. 2 graph 202",significantly reduces locomotor activity; also recorded: reduces hyperactivity in PNE mice in a manner comparable to that of methylphenidate
same,hyperactivity in children,[3],effective in reducing hyperactivity
same,weight gain,[4],reduced weight gain
"Oc1ccc2c3c1O[C@H]1c4[nH]c5c(c4C[C@@]4(O)[C@@H](C2)N(CC2CC2)CC[C@]314)C[C@@]1(O)[C@H]2Cc3ccc(O)c4c3[C@@]1(CCN2CC1CC1)[C@H]5O4 [nor-BNI, nor-binaltorphimine]",locomotor activity during lights off period (Mean±SEM beam breaks),"SHR rats; 60-day old SHR, 10 mg/kg i.p. at 17:00 hr, lights off 19:00-7:00 hr, saline=4830.75±609.2, p=0.04",2743.25±945.8 beam breaks
same,effect on locomotor activity compared to saline,"SHR rats; SHR, 10 mg/kg i.p., FIG. 4",reduced the locomotor activity
same,period over which decrease in hyperactivity was observed,"SHR rats; SHR, single i.p. injection 10 mg/kg",21 days
same,locomotor activity during lights off period (Mean±SEM beam breaks),"WKY control rats; 60-day old WKY control rats, saline=2604.5±608.1, p>0.05",2494.75±831.6 beam breaks
same,effect on locomotor activity,"WKY control rats; WKY control rats, FIG. 5",did not affect locomotor activity
same,duration of desensitization of the KOPR,KOPR,up to 21 days
